Consider 14 compounds from ChEMBL document CHEMBL4304806, “Triazolo-azepine Inhibitors of γ-Secretase and Their Methods of Use” (ACS Med Chem Lett, 2019).

For the experiment, the target named is Gamma-secretase. Put plainly: Inhibition of gamma secretase in human H4 cells over expressing human APP695 harboring K595N/M596L Swedish double mutant assessed as reduction in Abeta42 production level after 24 hrs by Alphalisa assay. Type of experiment: cell-based. For orientation: Alpha assays give light when donor and acceptor beads are brought close together.
Regarding `Cc1cn(C23CC(Nc4nc5n(n4)CCCC[C@@H]5c4cc(F)cc(Cl)c4)(C2)C3)cn1`, the IC50 (usually the concentration that inhibits the measured activity by half) amounted to 8 nM. On to `Cc1cn(C23CC(Nc4nc5n(n4)CCCC[C@@H]5c4ccc(Cl)cc4)(C2)C3)cn1`, for which the IC50 came out at 26 nM.

Take `Cc1cn(C23CC(Nc4nc5n(n4)CCCC[C@@H]5c4ccc(F)c(F)c4)(C2)C3)cn1`: the IC50 was 44 nM. Take `Cc1cn(C23CCC(Nc4nc5n(n4)CCCC[C@H]5c4ccc(F)c(F)c4)(CC2)CC3)cn1`: the IC50 was 49 nM.

For `Cc1cn(C23CC(Nc4nc5n(n4)CCCC[C@H]5c4ccc(Cl)cc4)(C2)C3)cn1`, the IC50 came to 23 nM. As to `Cc1cn(C23CCC(Nc4nc5n(n4)CCCC[C@@H]5c4cc(F)cc(Cl)c4)(CC2)CC3)cn1`, the IC50 was 15 nM.

`Cc1cn(C23CC(Nc4nc5n(n4)CCCC[C@H]5c4ccc(F)cc4)(C2)C3)cn1`: the half-maximal inhibitory concentration (IC50) was determined as 31 nM. `Cc1cn(C23CC(Nc4nc5n(n4)CCCC[C@H]5c4cccc(Cl)c4)(C2)C3)cn1`: the IC50 was 16 nM. For `Cc1cn(C23CC(Nc4nc5n(n4)CCCC[C@@H]5c4ccc(F)cc4)(C2)C3)cn1`, the IC50 came to 25 nM. On to `Cc1cn(C23CC(Nc4nc5n(n4)CCCC[C@@H]5c4cccc(Cl)c4)(C2)C3)cn1`, for which the IC50 came out at 15 nM. In the case of `Cc1cn(C23CC(Nc4nc5n(n4)CCCC[C@H]5c4ccc(F)c(F)c4)(C2)C3)cn1`, the IC50 stood at 27 nM. With `Cc1cn(C23CCC(Nc4nc5n(n4)CCCC[C@H]5c4cc(F)cc(Cl)c4)(CC2)CC3)cn1`, the IC50 was found to be 14 nM. Turning to `Cc1cn(C23CC(Nc4nc5n(n4)CCCC[C@H]5c4cc(F)cc(Cl)c4)(C2)C3)cn1`, the IC50 amounted to 14 nM. `Cc1cn(C23CCC(Nc4nc5n(n4)CCCC[C@@H]5c4ccc(F)c(F)c4)(CC2)CC3)cn1`: the IC50 turned out to be 39 nM.
